# Reference: US8338597B2, “Pyridones useful as inhibitors of kinases” (Vertex Pharmaceuticals Incorporated, priority 2004, dated 2012)
# Target: T1, Itk (Homo sapiens, UniProt Q08881)
# T1 sequence (Q08881 1-620): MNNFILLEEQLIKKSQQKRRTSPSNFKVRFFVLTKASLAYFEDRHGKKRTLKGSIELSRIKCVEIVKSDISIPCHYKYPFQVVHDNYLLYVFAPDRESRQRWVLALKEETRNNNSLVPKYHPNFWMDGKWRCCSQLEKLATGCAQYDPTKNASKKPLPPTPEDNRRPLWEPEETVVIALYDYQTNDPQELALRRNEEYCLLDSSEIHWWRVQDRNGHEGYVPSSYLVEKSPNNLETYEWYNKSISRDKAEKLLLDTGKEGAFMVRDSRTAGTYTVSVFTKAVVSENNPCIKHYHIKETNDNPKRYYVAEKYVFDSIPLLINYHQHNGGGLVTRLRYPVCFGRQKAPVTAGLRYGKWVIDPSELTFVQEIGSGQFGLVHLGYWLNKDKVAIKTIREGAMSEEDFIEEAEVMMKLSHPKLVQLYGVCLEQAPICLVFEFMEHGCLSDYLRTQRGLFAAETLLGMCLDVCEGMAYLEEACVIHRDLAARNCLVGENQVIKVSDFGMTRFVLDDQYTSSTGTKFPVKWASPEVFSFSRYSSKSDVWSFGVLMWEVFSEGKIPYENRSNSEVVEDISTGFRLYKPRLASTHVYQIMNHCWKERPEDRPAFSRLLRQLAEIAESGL
# Experiment: ITK inhibition assay, radioactive-phosphate incorporation
# Type: biochemical
# Conditions: [γ-33P]ATP, SAM68 peptide, 25° C.
# Description: Assays were carried out in a mixture of 20 mM MOPS (pH 7.0), 10 mM MgCl2, 0.1% BSA and 1 mM DTT. […] Assays were carried out at 25° C. in the presence of 50 nM Itk. An assay stock buffer solution was prepared containing all of the reagents listed above, with the exception of ATP and the test compound of interest.
# The reaction was stopped after 10 minutes by the addition of […] 0.2M phosphoric acid+0.01% TWEEN 20. A multiscreen phosphocellulose filter 96-well plate (Millipore, Cat no. MAPHN0B50) was pretreated with 100 μL 0.2M phosphoric acid+0.01% TWEEN 20 prior to the addition of […] of the stopped assay mixture. The plate was washed with 4×200 μL 0.2M phosphoric acid+0.01% TWEEN 20.
# Ki(app) data were calculated from non-linear regression analysis of the initial rate data using the Prism software package (GraphPad Prism version 3.0cx for Macintosh, GraphPad Software, San Diego Calif., USA).
row,Ki [nM],SMILES
1,< 100,CNc1cccc(-c2c[nH]c(=O)c(NC(=O)c3ccc(OCC4CCNCC4)cc3)c2)n1 [II-157]
2,< 100,CNc1cncc(-c2c[nH]c(=O)c(NC(=O)c3ccc(OCCN4CCNCC4)cc3)c2)n1 [II-158]
3,100 to 1000,N#Cc1ccnc(-c2c[nH]c(=O)c(NC(=O)c3ccc(N4CCNCC4)cc3)c2)c1 [II-161]
4,< 100,CNc1cncc(-c2c[nH]c(=O)c(NC(=O)c3ccc(NCCN4CCCC4)cc3)c2)n1 [II-162]
5,< 100,CNc1cncc(-c2c[nH]c(=O)c(NC(=O)c3ccc(N(C)CCc4cnc[nH]4)cc3)c2)n1 [II-165]
6,< 100,CNc1cncc(-c2c[nH]c(=O)c(NC(=O)c3ccc(N(C)CCCN(C)C)cc3)c2)n1 [II-167]
7,< 100,CNc1cc(-c2c[nH]c(=O)c(NC(=O)c3ccc(N4CCNCC4)cc3)c2)ccn1 [II-169]
8,< 100,CNc1cc(-c2c[nH]c(=O)c(NC(=O)c3ccc(OCC4CCNCC4)cc3)c2)ncn1 [II-170]
9,< 100,CNc1cc(-c2c[nH]c(=O)c(NC(=O)c3ccc(N4CCC[C@H]4CN4CCCC4)cc3)c2)ccn1 [II-172]
10,100 to 1000,O=C(Nc1cc(-c2cccc(NC(CO)CO)n2)c[nH]c1=O)c1ccc(N2CCCCC2)cc1 [II-174]
11,100 to 1000,CCNc1cncc(-c2c[nH]c(=O)c(NC(=O)c3ccc(N4CCC[C@H]4CN4CCCC4)cc3)c2)n1 [II-175]
12,100 to 1000,O=C(Nc1cc(-c2cncc(NC3CC3)n2)c[nH]c1=O)c1ccc(N2CCC[C@H]2CN2CCCC2)cc1 [II-176]
13,< 100,CNc1cncc(-c2c[nH]c(=O)c(NC(=O)c3ccc(OCCCN4CCCCC4)cc3)c2)n1 [II-177]
14,< 100,CNc1cncc(-c2c[nH]c(=O)c(NC(=O)c3ccc(OC4CCNCC4)cc3)c2)n1 [II-181]
15,< 100,CNc1cncc(-c2c[nH]c(=O)c(NC(=O)c3ccc(OCCCN4CCOCC4)cc3)c2)n1 [II-182]
16,100 to 1000,CCc1ccc(NC(=O)c2cc(-c3ccncc3)c[nH]c2=O)cc1 [III-7]
17,100 to 1000,O=C(Nc1ccc(Br)cc1)c1cc(-c2ccncc2)c[nH]c1=O [III-8]
18,100 to 1000,COc1ccc(NC(=O)c2cc(-c3ccncc3)c[nH]c2=O)cc1 [III-11]
19,100 to 1000,COc1ccc(NC(=O)c2cc(-c3ccncc3)c[nH]c2=O)cc1OC [III-16]
20,< 100,O=C(Nc1ccc(N2CCOCC2)cc1)c1cc(-c2ccncc2)c[nH]c1=O [III-42]
21,100 to 1000,O=C(Nc1ccc(C2CCCCC2)cc1)c1cc(-c2ccncc2)c[nH]c1=O [III-43]
22,< 100,O=C(Nc1ccc(N2CCCCC2)cc1)c1cc(-c2ccncc2)c[nH]c1=O [III-44]
23,100 to 1000,CCOc1ccc(NC(=O)c2cc(-c3ccncc3)c[nH]c2=O)cc1 [III-45]
24,< 100,CN1CCN(c2ccc(NC(=O)c3cc(-c4ccncc4)c[nH]c3=O)cc2)CC1 [III-46]
25,< 100,CCN1CCN(c2ccc(NC(=O)c3cc(-c4ccncc4)c[nH]c3=O)cc2)CC1 [III-47]
26,< 100,O=C(Nc1ccc(N2CCC(O)CC2)cc1)c1cc(-c2ccncc2)c[nH]c1=O [III-52]
27,< 100,O=C(Nc1ccc(N2CCNCC2)cc1)c1cc(-c2ccncc2)c[nH]c1=O [III-54]

# Second part, the compound before the results:
row,SMILES,Ki [nM]
1,O=C(Nc1cc(-c2ccncc2)c[nH]c1=O)c1ccc(N2CCNCC2)cc1 [Compound I-71],< 100
2,CCN(CC)CCN1CCN(c2ccc(C(=O)Nc3cc(-c4ccncc4)c[nH]c3=O)cc2)CC1 [Compound I-74],< 100
3,CNc1nccc(-c2c[nH]c(=O)c(NC(=O)c3ccc(C(C)(C)C)cc3)c2)n1 [II-14],< 100
4,Cn1cc(-c2c[nH]c(=O)c(NC(=O)c3ccc(C(C)(C)C)cc3)c2)cn1 [II-15],100 to 1000
5,CNc1cc(-c2c[nH]c(=O)c(NC(=O)c3ccc(C(C)(C)C)cc3)c2)ncn1 [II-17],< 100
6,CC(C)(C)c1ccc(C(=O)Nc2cc(-c3ccnc(NC4CCNCC4)n3)c[nH]c2=O)cc1 [II-28],< 100
7,CC(C)(C)c1ccc(C(=O)Nc2cc(-c3ccnc(NC4CCCNC4)n3)c[nH]c2=O)cc1 (stereo not shown) [II-29],< 100
8,CC(C)(C)c1ccc(C(=O)Nc2cc(-c3ccnc(NC4CCNC4)n3)c[nH]c2=O)cc1 (stereo not shown) [II-30],< 100
9,CC(C)(C)c1ccc(C(=O)Nc2cc(-c3ccnc(N[C@@H]4CCNC4)n3)c[nH]c2=O)cc1 [II-31],< 100
10,CNCCNc1cccc(-c2c[nH]c(=O)c(NC(=O)c3ccc(C(C)(C)C)cc3)c2)n1 [II-35],< 100
11,O=C(Nc1cc(-c2ccccn2)c[nH]c1=O)c1ccc(N2CCCCC2)cc1 [II-140],100 to 1000
12,CNc1cc(-c2c[nH]c(=O)c(NC(=O)c3ccc(OCCC4CCNCC4)cc3)c2)ncn1 [II-142],< 100
13,Cn1cncc1-c1c[nH]c(=O)c(NC(=O)c2ccc(N3CCNCC3)cc2)c1 [II-144],100 to 1000
14,CNc1cncc(-c2c[nH]c(=O)c(NC(=O)c3ccc(N4CCC[C@H]4CN4CCCC4)cc3)c2)n1 [II-145],< 100
15,CNc1cncc(-c2c[nH]c(=O)c(NC(=O)c3ccc(N4CCCNCC4)cc3)c2)n1 [II-146],< 100
16,CNc1cncc(-c2c[nH]c(=O)c(NC(=O)c3ccc(N4CCC[C@H]4CO)cc3)c2)n1 [II-147],< 100
17,O=C(Nc1cc(-c2cccc(NC3(CO)CCCC3)n2)c[nH]c1=O)c1ccc(N2CCCCC2)cc1 [II-150],100 to 1000
18,CC[C@@H](CO)Nc1cccc(-c2c[nH]c(=O)c(NC(=O)c3ccc(N4CCCCC4)cc3)c2)n1 [II-151],100 to 1000
19,CCC(C)[C@@H](CO)Nc1cccc(-c2c[nH]c(=O)c(NC(=O)c3ccc(N4CCCCC4)cc3)c2)n1 (stereo partly shown) [II-152],100 to 1000
20,CNc1cncc(-c2c[nH]c(=O)c(NC(=O)c3ccc(OCC4CCNCC4)cc3)c2)n1 [II-153],< 100
21,N#Cc1cncc(-c2c[nH]c(=O)c(NC(=O)c3ccc(N4CCC[C@H]4CN4CCCC4)cc3)c2)c1 [II-154],100 to 1000
22,CNc1cncc(-c2c[nH]c(=O)c(NC(=O)c3ccc(N4CCN(C)CC4)cc3)c2)n1 [II-155],< 100
23,CNc1cncc(-c2c[nH]c(=O)c(NC(=O)c3ccc(N4CCC(CCO)CC4)cc3)c2)n1 [II-156],< 100

# Target: T2, Rlk (Homo sapiens, UniProt P42681)
# T2 sequence (P42681 1-527): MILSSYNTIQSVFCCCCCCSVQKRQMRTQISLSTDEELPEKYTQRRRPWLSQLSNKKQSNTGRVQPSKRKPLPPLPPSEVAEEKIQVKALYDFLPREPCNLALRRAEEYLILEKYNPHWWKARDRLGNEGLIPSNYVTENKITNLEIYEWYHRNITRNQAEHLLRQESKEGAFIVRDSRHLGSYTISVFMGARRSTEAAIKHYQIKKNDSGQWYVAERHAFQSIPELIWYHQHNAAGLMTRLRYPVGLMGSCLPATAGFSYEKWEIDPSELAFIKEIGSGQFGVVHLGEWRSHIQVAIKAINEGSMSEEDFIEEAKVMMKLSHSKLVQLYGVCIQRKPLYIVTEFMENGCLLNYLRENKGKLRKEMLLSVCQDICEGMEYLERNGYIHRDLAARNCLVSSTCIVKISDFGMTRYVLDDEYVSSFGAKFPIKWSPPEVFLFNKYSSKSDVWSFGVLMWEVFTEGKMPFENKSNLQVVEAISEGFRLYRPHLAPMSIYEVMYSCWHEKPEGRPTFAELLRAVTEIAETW
# Experiment: RLK inhibition assay, standard coupled enzyme assay
# Type: biochemical
# Conditions: 100 μM ATP, 40 nM Rlk, 30° C.
# Description: Compounds were screened for their ability to inhibit Rlk using a standard coupled enzyme assay (Fox et al., Protein Sci., (1998) 7, 2249). Assays were carried out in a mixture of 20 mM MOPS (pH 7.0), 10 mM MgCl2, 0.1% BSA and 1 mM DTT. Final substrate concentrations in the assay were 100 μM ATP (Sigma Chemicals) and 10 μM peptide (Poly Glu:Tyr 4:1). Assays were carried out at 30° C. and in the presence of 40 nM Rlk. Final concentrations of the components of the coupled enzyme system were 2.5 mM phosphoenolpyruvate, 300 μM NADH, 30 μg/ml pyruvate kinase and 10 μg/ml lactate dehydrogenase.
# An assay stock buffer solution was prepared containing all of the reagents listed above, with the exception of ATP and the test compound of interest. 60 μl of the stock solution was placed in a 96 well plate followed by addition of […] of DMSO stock containing serial dilutions of the test compound (typically starting from a final concentration of 7.5 μM). The plate was preincubated for 10 minutes at 30° C. and the reaction initiated by addition of 5 μl of ATP. Initial reaction rates were determined with a Molecular Devices SpectraMax Plus plate reader over a 10 minute time course. IC50 and Ki data were calculated from non-linear regression analysis using the Prism software package (GraphPad Prism version 3.0cx for Macintosh, GraphPad Software, San Diego Calif., USA).
row,Ki [nM],SMILES
1,> 1000,O=C(Nc1cc(-c2ccncc2)c[nH]c1=O)c1ccc(N2CCNCC2)cc1 [Compound I-71]
2,> 1000,CCN(CC)CCN1CCN(c2ccc(C(=O)Nc3cc(-c4ccncc4)c[nH]c3=O)cc2)CC1 [Compound I-74]
3,< 1000,CNc1nccc(-c2c[nH]c(=O)c(NC(=O)c3ccc(C(C)(C)C)cc3)c2)n1 [II-14]
4,> 1000,Cn1cc(-c2c[nH]c(=O)c(NC(=O)c3ccc(C(C)(C)C)cc3)c2)cn1 [II-15]
5,> 1000,CNc1cc(-c2c[nH]c(=O)c(NC(=O)c3ccc(C(C)(C)C)cc3)c2)ncn1 [II-17]
6,< 1000,CC(C)(C)c1ccc(C(=O)Nc2cc(-c3ccnc(NC4CCNCC4)n3)c[nH]c2=O)cc1 [II-28]
7,< 1000,CC(C)(C)c1ccc(C(=O)Nc2cc(-c3ccnc(NC4CCCNC4)n3)c[nH]c2=O)cc1 (stereo not shown) [II-29]
8,< 1000,CC(C)(C)c1ccc(C(=O)Nc2cc(-c3ccnc(NC4CCNC4)n3)c[nH]c2=O)cc1 (stereo not shown) [II-30]
9,< 1000,CC(C)(C)c1ccc(C(=O)Nc2cc(-c3ccnc(N[C@@H]4CCNC4)n3)c[nH]c2=O)cc1 [II-31]
10,< 1000,CNCCNc1cccc(-c2c[nH]c(=O)c(NC(=O)c3ccc(C(C)(C)C)cc3)c2)n1 [II-35]
11,> 1000,CNc1cc(-c2c[nH]c(=O)c(NC(=O)c3ccc(N4CCCCC4)cc3)c2)ncn1 [II-46]
12,> 1000,CNc1cccc(-c2c[nH]c(=O)c(NC(=O)c3ccc(N4CCCCC4)cc3)c2)n1 [II-47]
13,> 1000,CNc1cc(-c2c[nH]c(=O)c(NC(=O)c3ccc(N4CCCCC4)cc3)c2)ccn1 [II-115]
14,> 1000,CNc1cncc(-c2c[nH]c(=O)c(NC(=O)c3ccc(N4CCCCC4)cc3)c2)c1 [II-159]
